Measured values as given in patent publication US20230002359A1, “PESTICIDALLY ACTIVE FUSED BICYCLIC HETEROAROMATIC COMPOUNDS” (priority 2019, published 2023).

Tests used:
Format in all cases: in vivo
[1] = tested on: Diabrotica Balteata (Corn Root Worm); experiment: Example B1: Diabrotica balteata (corn root worm), maize sprouts sprayed, L2 larvae; details: 96 h, application rate of 200 ppm, 4 days after infestation, L2 larvae, read-out: control in at least one of the two categories (mortality or growth inhibition)
Protocol: Maize sprouts placed onto an agar layer in 24-well microtiter plates were treated with aqueous test solutions prepared from 10′000 ppm DMSO stock solutions by spraying. After drying, the plates were infested with L2 larvae (6 to 10 per well). The samples were assessed for mortality and growth inhibition in comparison to untreated samples 4 days after infestation.

[2] = tested on: Chilo suppressalis (Striped Rice Stemborer); experiment: Example B3: Chilo suppressalis (striped rice stemborer), artificial diet, L2 larvae; details: 144 h, application rate of 200 ppm, 6 days after infestation, L2 larvae, read-out: control in at least one of the three categories (mortality, anti-feedant effect, or growth inhibition)
Protocol: 24-well microtiter plates with artificial diet were treated with aqueous test solutions prepared from 10′000 ppm DMSO stock solutions by pipetting. After drying, the plates were infested with L2 larvae (6-8 per well). The samples were assessed for mortality, anti-feeding effect, and growth inhibition in comparison to untreated samples 6 days after infestation. Control of Chilo suppressalis by a test sample is given when at least one of the categories mortality, anti-feedant effect, and growth inhibition is higher than the untreated sample.

[3] = tested on: Plutella xylostella (Diamond Back Moth); experiment: Example B4: Plutella xylostella (diamond back moth), artificial diet, eggs, 24-well; details: 192 h, application rate of 200 ppm, 8 days after infestation, eggs, read-out: control in at least one of the two categories (mortality or growth inhibition)
Protocol: 24-well microtiter plates with artificial diet were treated with aqueous test solutions prepared from 10′000 ppm DMSO stock solutions by pipetting. After drying, Plutella eggs were pipetted through a plastic stencil onto a gel blotting paper and the plate was closed with it. The samples were assessed for mortality and growth inhibition in comparison to untreated samples 8 days after infestation.

[4] = tested on: Spodoptera littoralis (Egyptian Cotton Leaf Worm); experiment: Example B7: Spodoptera littoralis (Egyptian cotton leaf worm), cotton leaf discs sprayed, L1 larvae; details: foliar, 72 h, application rate of 200 ppm, 3 days after infestation, L1 larvae, read-out: control in at least one of the three categories (mortality, anti-feedant effect, or growth inhibition)
Protocol: Cotton leaf discs were placed onto agar in 24-well microtiter plates and sprayed with aqueous test solutions prepared from 10′000 ppm DMSO stock solutions. After drying the leaf discs were infested with five L1 larvae. The samples were assessed for mortality, anti-feeding effect, and growth inhibition in comparison to untreated samples 3 days after infestation. Control of Spodoptera littoralis by a test sample is given when at least one of the categories mortality, anti-feedant effect, and growth inhibition is higher than the untreated sample.

| SMILES | percent control (mortality or growth inhibition) at 200 ppm [1] | percent control (mortality, anti-feedant effect or growth inhibition) at 200 ppm [2] | percent control (mortality or growth inhibition) at 200 ppm [3] | percent control (mortality, anti-feedant effect or growth inhibition) at 200 ppm [4] |
| --- | --- | --- | --- | --- |
| CC(Nc1ncnc2c(Cl)cc(Br)cc12)c1ncnn1-c1ncccn1 (centres unmarked) [P.159, 6-bromo-8-chloro-N-[1-(2-pyrimidin-2-yl-1,2,4-triazol-3-yl)ethyl]quinazolin-4-amine] | ≥ 80% | ≥ 80% | ≥ 80% | ≥ 80% |
| CC(Nc1ncnc2c(Br)cc(Br)cc12)c1nccnc1-n1nccn1 (centres unmarked) [P.37, 6,8-dibromo-N-[1-[3-(triazol-2-yl)pyrazin-2-yl]ethyl]quinazolin-4-amine] | ≥ 80% | ≥ 80% | ≥ 80% | ≥ 80% |
| CC(Nc1ncnc2c(C(F)(F)F)cc(Cl)cc12)c1ncnn1-c1ccc(C#N)cn1 (centres unmarked) [P.41, 6-[5-[1-[[6-chloro-8-(trifluoromethyl)quinazolin-4-yl]amino]ethyl]-1,2,4-triazol-1-yl]pyridine-3-carbonitrile] | – | ≥ 80% | ≥ 80% | ≥ 80% |
| C[C@H](c1ncnn1-c1ccc(C#N)cn1)N(C)c1ncnc2c(C(F)(F)F)cc(C(F)(F)F)cc12 [P.53, 6-[5-[(1R)-1-[[6,8-bis(trifluoromethyl)quina-zolin-4-yl]-methyl-amino]ethyl]-1,2,4-triazol-1-yl]pyridine-3-carbonitrile] | – | ≥ 80% | ≥ 80% | ≥ 80% |
| CC(Nc1ncnc2c(C(F)(F)F)cc(Cl)cc12)c1ncnn1-c1ccc(F)cn1 (centres unmarked) [P.234, 6-chloro-N-[1-[2-(5-fluroo-2-pyridyl)-1,2,4-triazol-3-yl]ethyl]-8-(trifluoromethyl)quinazolin-4-amine] | ≥ 80% | – | ≥ 80% | ≥ 80% |
| CC(Nc1ncnc2c(C(F)(F)F)cc(Br)cc12)c1ncnn1-c1ccc(OC(F)F)cn1 (centres unmarked) [P.195, 6-bromo-N-[1-[2-[5-(difluoromethoxy)-2-pyridyl]-1,2,4-triazol-3-yl]ethyl]-8-(trifluoromethyl)quinazolin-4-amine] | – | ≥ 80% | – | ≥ 80% |
| CC(Nc1ncnc2c(Br)cc(C(F)(F)F)cc12)c1ncnn1-c1ccc(C#N)cn1 (centres unmarked) [P.42, 6-[5-[1-[[8-bromo-6-(trifluoromethyl)quinazolin-4-yl]amino]ethyl]-1,2,4-triazol-1-yl]pyridine-3-carbonitrile] | – | ≥ 80% | ≥ 80% | ≥ 80% |
| CC(Nc1ncnc2c(Br)cc(OC(F)(F)F)cc12)c1ncnn1-c1ccc(C#N)cn1 (centres unmarked) [P.246, 6-[5-[1-[[8-bromo-6-(trifluoromethoxy)quinazo-lin-4-yl]amino]ethyl]-1,2,4-triazol-1-yl]pyridine-3-carbonitrile] | – | ≥ 80% | ≥ 80% | ≥ 80% |
| C[C@@H](c1ncnn1-c1ccc(C#N)cn1)N(C)c1ncnc2c(C(F)(F)F)cc(Br)cc12 [P.204, 6-[5-[(1S)-1-[[6-bromo-8-(trifluoromethyl)quinazolin-4-yl]-methyl-amino]ethyl]-1,2,4-triazol-1-yl]pyridine-3-carbonitrile] | – | – | ≥ 80% | ≥ 80% |
| CC(Nc1ncnc2c(Cl)cc(C(F)(F)F)cc12)c1ncnn1-c1ccc(C#N)cn1 (centres unmarked) [P.45, 6-[5-[1-[[8-chloro-6-(trifluoromethyl)quinazolin-4-yl]amino]ethyl]-1,2,4-triazol-1-yl]pyridine-3-carbonitrile] | – | ≥ 80% | ≥ 80% | ≥ 80% |
| CC(Nc1ncnc2c(Cl)c(F)c(Cl)cc12)c1ncnn1-c1ncccn1 (centres unmarked) [P.166, 6,8-dichloro-7-fluoro-N-[1-(2-pyrimidin-2-yl-1,2,4-triazol-3-yl)ethyl]quinazolin-4-amine] | ≥ 80% | – | – | ≥ 80% |
| CC(c1nccnc1-c1ccc(C#N)cn1)N(C)c1ncnc2c(C(F)(F)F)cc(Br)cc12 (centres unmarked) [P.125, 6-[3-[1-[[6-bromo-8-(trifluoromethyl)quinazolin-4-yl]-methyl-amino]ethyl]pyrazin-2-yl]pyridine-3-carbonitrile] | – | – | ≥ 80% | ≥ 80% |
| CC(c1nccnc1-c1ccc(C#N)cn1)N(CC1CC1)c1ncnc2c(Br)cc(C(F)(F)F)cc12 (centres unmarked) [P.73, 6-[3-[1-[[8-bromo-6-(trifluoromethyl)quinazolin-4-yl]-(cyclopropylmethyl)amino]ethyl]pyrazin-2-yl]pyridine-3-carbonitrile] | ≥ 80% | ≥ 80% | ≥ 80% | – |
| CC(c1nccnc1-n1nccn1)N(C)c1ncnc2c(Br)cc(OC(F)(F)F)cc12 (centres unmarked) [P.179, 8-bromo-N-methyl-N-[1-[3-(triazol-2-yl)pyrazin-2-yl]ethyl]-6-(trifluoromethoxy)quinazo-lin-4-amine] | ≥ 80% | ≥ 80% | ≥ 80% | – |
| CC(Nc1ncnc2c(Cl)cc(C(F)(F)F)cc12)c1nccnc1-c1ccc(C#N)cn1 (centres unmarked) [P.121, 6-[3-[1-[[8-chloro-6-(trifluoromethyl)quinazolin-4-yl]amino]ethyl]pryazin-2-yl]pyridine-3-carbonitrile] | – | ≥ 80% | – | ≥ 80% |
| CC(c1nccnc1-c1ncccn1)N(CC1CC1)c1ncnc2c(Cl)cc(C(F)(F)F)cc12 (centres unmarked) [P.81, 8-chloro-N-(cyclopropylmethyl)-N-[1-(3-pyrimidin-2-ylpyrazin-2-yl)ethyl]-6-(trifluoromethyl)quinazolin-4-amine] | ≥ 80% | ≥ 80% | ≥ 80% | – |
| CC(c1nccnc1-c1ccc(C#N)cn1)N(C)c1ncnc2c(C(F)(F)F)cc(Cl)cc12 (centres unmarked) [P.275, 6-[3-[1-[[6-chloro-8-(trifluoromethyl)quinazolin-4-yl]-methyl-amino]ethyl]pyrazin-2-yl]pyridine-3-carbonitrile] | – | ≥ 80% | – | ≥ 80% |
| CC(Nc1nc(Cl)nc2c(C(F)(F)F)cc(C(F)(F)F)cc12)c1ncnn1-c1ncccn1 (centres unmarked) [P.25, 2-chloro-N-[1-(2-pyrimidin-2-yl-1,2,4-triazol-3-yl)ethyl]-6,8-bis(trifluoromethyl)quinazolin-4-amine] | ≥ 80% | ≥ 80% | – | ≥ 80% |
